Measured values published in publication PMC12040169 (PLOS Biology, 2025).

Experiment: in vitro
Details: human, hela cells, % viability

SMILES	viability at 28.5 h, 10 µM	viability at 28.5 h, 10 µM (bulk resorufin, single well)
Cc1cccnc1C(NC(=O)C1CCN(C(=O)N2CCCC2)CC1)c1cccs1 (stereo not shown) [CBK060124]	106%	–
Cc1cccnc1C(NC(=O)C1CCN(S(=O)(=O)c2cccs2)CC1)c1cccs1 (stereo not shown) [CBK060147]	111%	–
O=C(NC(c1ccccn1)c1cccs1)C1CCN(S(=O)(=O)c2ccc(C(F)(F)F)cc2)CC1 (stereo not shown) [CBK060153]	92.4%	–
O=C(NC(c1ccccc1)c1ccsc1)C1CCN(S(=O)(=O)c2cccc(Cl)c2)CC1 (stereo not shown) [CBK060188]	97.7%	–
COc1ccc(S(=O)(=O)N2CCC(C(=O)N(C)C(c3cnccn3)c3ccccc3C)CC2)cc1 (stereo not shown) [CBK060210]	99.3%	–
CN(C(=O)C1CCN(S(=O)(=O)c2cn(C)cn2)CC1)C(c1ccc(F)cc1)c1ccccn1 (stereo not shown) [CBK060229]	83.8%	–
Cc1ccccc1C(c1cnccn1)N(C)C(=O)C1CCN(S(=O)(=O)C(C)C)CC1 (stereo not shown) [CBK060242]	101%	–
C=CCOC(=O)N1CCC(C(=O)N(C)C(c2cccc(OC)c2)c2ccccn2)CC1 (stereo not shown) [CBK060244]	91.5%	–
Cc1ccccc1C(c1cnccn1)N(C)C(=O)C1CCN(S(=O)(=O)c2cn(C)cn2)CC1 (stereo not shown) [CBK060264]	93.1%	–
Cc1ccccc1C(NC(=O)C1CCN(C(=O)NCCc2ccccc2)CC1)c1ncccc1C (stereo not shown) [CBK060409]	91%	–
COc1ccc(C(c2ccccc2C)N(C)C(=O)C2CCN(C(C)=O)CC2)cn1 (stereo not shown) [CBK060490]	90.8%	–
O=C(NC(c1ccccc1)c1cccnc1)C1CCN(C(=O)CN2C(=O)c3ccccc3C2=O)CC1 (stereo not shown) [CBK060515]	108%	–
COc1ccccc1C(=O)N1CCC(C(=O)N(C)C(c2ccccc2)c2ncccc2C)CC1 (stereo not shown) [CBK060531]	75.4%	–
O=C(Nc1ccccc1F)N1CCC2(CC1)OCc1cc(-c3ccco3)ccc1O2 [CBK060597]	–	92%
COc1cccc2c1OC1(CCN(C(=O)Nc3ccc(F)cc3F)CC1)OC2 [CBK060689]	–	100%
CSc1cc(C)c2c(c1)COC1(CCN(C(=O)Nc3c(C)noc3C)CC1)O2 [CBK060699]	–	95.3%
O=C(N[C@@H]1C[C@H]1c1ccccc1)N1CCC2(CC1)OCc1cc(F)ccc1O2 [CBK060724]	–	82.1%
CC(C)(C)NC(=O)N1CCC2(CC1)OCc1cc(Br)ccc1O2 [CBK060739]	–	106%
CSc1cc(C)c2c(c1)COC1(CCN(C(=O)NC3CCCCC3)CC1)O2 [CBK060745]	–	97.4%
CSc1cc(C)c2c(c1)COC1(CCN(C(=O)N[C@@H](C)c3ccccc3)CC1)O2 [CBK060747]	–	94.5%
COc1ccc2c(c1)COC1(CCN(C(=O)Nc3ccc(N(C)C)cc3)CC1)O2 [CBK060753]	–	98.8%

SMILES	viability at 28.5 h, 10 µM	viability at 28.5 h, 10 µM (bulk resorufin, single well)
COc1ccc2c(c1)COC1(CCN(C(=O)N[C@@H](C)c3ccccc3)CC1)O2 [CBK060757]	–	106%
COc1ccc2c(c1)COC1(CCN(C(=O)NC(=O)c3ccccc3)CC1)O2 [CBK060804]	–	95.7%
O=C(O)c1ccccc1C(=O)N1CCC2(CC1)OCc1cc(-c3ccco3)ccc1O2 [CBK060824]	–	93.6%
O=C(O)C1CC1C(=O)N1CCC2(CC1)OCc1cc(-c3ccco3)ccc1O2 (stereo not shown) [CBK060825]	–	103%
COc1ccc2c(c1)COC1(CCN(C(=O)C3CCC3C(=O)O)CC1)O2 (stereo not shown) [CBK060857]	–	97.1%
O=C(O)CC1(CC(=O)N2CCC3(CC2)OCc2cc(F)ccc2O3)CCCC1 [CBK060858]	–	94.7%
c1cc(-c2ccc3c(c2)COC2(CCNCC2)O3)ccn1 [CBK060867]	–	99%
c1csc(-c2ccc3c(c2)COC2(CCNCC2)O3)c1 [CBK060871]	–	90.3%
CC(=O)N1CCC2(CC1)OCc1cc(-c3c(C)noc3C)ccc1O2 [CBK060896]	–	94.4%
CCOC(=O)N1CCC2(CC1)OCc1cc(-c3ccccc3CO)ccc1O2 [CBK060908]	–	103%
COc1ccc(-c2ccc3c(c2)COC2(CCNCC2)O3)cn1 [CBK060913]	–	81%
Fc1ccc(-c2ccc3c(c2)COC2(CCNCC2)O3)c(F)c1 [CBK060917]	–	96%
c1ccc2cc(-c3ccc4c(c3)COC3(CCNCC3)O4)ccc2c1 [CBK060949]	–	88%
CC(=O)Nc1cccc(-c2ccc3c(c2)COC2(CCNCC2)O3)c1 [CBK060956]	–	94.5%
O=[N+]([O-])c1cccc(-c2ccc3c(c2)COC2(CCNCC2)O3)c1 [CBK060957]	–	105%
Fc1ccc(-c2ccc3c(c2)COC2(CCNCC2)O3)cc1Cl [CBK060960]	–	89.8%
CC(=O)N1CCC2(CC1)OCc1cc(-c3ccc(CCC(=O)O)cc3)ccc1O2 [CBK060971]	–	90.3%
CC(=O)N1CCC2(CC1)OCc1cc(-c3ccccc3C(=O)O)ccc1O2 [CBK060975]	–	92.1%
CCOC(=O)N1CCC2(CC1)OCc1cc(-c3cccc(F)c3)ccc1O2 [CBK060987]	–	104%
CC(=O)N1CCC2(CC1)OCc1cc(-c3cncc4ccccc34)ccc1O2 [CBK061010]	–	90.4%
CN1CCC2(CC1)OCc1cc(-c3cccnc3)ccc1O2 [CBK061020]	94.6%	–

SMILES	viability at 28.5 h, 10 µM	viability at 28.5 h, 10 µM (bulk resorufin, single well)
COc1ccccc1-c1ccc2c(c1)COC1(CCN(C)CC1)O2 [CBK061024]	82.2%	–
c1coc(-c2ccc3c(c2)COC2(CCN(CCc4ccc5c(c4)OCO5)CC2)O3)c1 [CBK061057]	90.4%	–
O=C(c1ccco1)N1CCC2(CC1)OCc1cc(Cl)ccc1O2 [CBK061068]	–	94.4%
COc1cccc2c1OC1(CCN(C(=O)c3cccnc3)CC1)OC2 [CBK061070]	–	95.7%
COc1cccc2c1OC1(CCN(C(=O)c3ccno3)CC1)OC2 [CBK061071]	–	97%
O=C(Cc1cccs1)N1CCC2(CC1)OCc1ccccc1O2 [CBK061086]	–	86.8%
COc1ccc(-c2ccc3c(c2)COC2(CCNCC2)O3)c(OC)c1 [CBK061344]	–	91.1%
CSc1cc(C)c2c(c1)COC1(CCN(CC3CC3)CC1)O2 [CBK061383]	94.1%	–
Cc1cc(C)c2c(c1)COC1(CCN(Cc3ccccc3)CC1)O2 [CBK061572]	102%	–
Cc1cc(C)c2c(c1)COC1(CCNCC1)O2 [CBK061574]	–	100%
c1ccc(-c2cccc3c2OC2(CCNCC2)OC3)cc1 [CBK061589]	–	105%
O=C(COc1ccccc1)Nc1nn(Cc2ccc(S(=O)(=O)N3CCCC3)cc2)c2ccccc12 [CBK061594]	58.6%	–
CC(Oc1ccccc1)C(=O)Nc1nn(Cc2ccc(S(=O)(=O)N3CCCC3)cc2)c2ccccc12 (stereo not shown) [CBK061595]	102%	–
CCN(Cc1ccncc1)C(CC1CCCCC1)c1ccccc1 (stereo not shown) [CBK061639T]	97.3%	–
COc1cccc(-c2ccc3ccc(N)nc3n2)c1 [CBK061640]	99%	–
CCN(Cc1cccnc1)C(CC1CCCCC1)c1ccccc1 (stereo not shown) [CBK061673]	98%	–
CCN(C(=O)c1ccncc1)C(CC1CCCCC1)c1ccccc1 (stereo not shown) [CBK061674]	86.9%	–
CCNC(=O)N1CCc2c([nH]c3ccc(OC)cc23)C12CCN(CCOc1ccccc1)C2 (stereo not shown) [CBK061690]	93%	–
COc1ccc(CCNC(=O)CCCc2cn(C)c3ccccc23)cc1OC [CBK061740]	100%	–
